# Measurements taken from ChEMBL document CHEMBL4052667 (Bioorg Med Chem, 2017).
# Assays:
# [1] = molecular target: Poly [ADP-ribose] polymerase 1 (Homo sapiens, UniProt P09874); test: Inhibition of recombinant full length human N-terminal GST-tagged PARP1 expressed in baculovirus infected Sf9 cells using biotinylated substrate after 1 hr by UV/Vis spectrophotometric analysis
# [2] = molecular target: Poly [ADP-ribose] polymerase 2 (Homo sapiens, UniProt Q9UGN5); test: Inhibition of recombinant human N-terminal GST-tagged PARP2 (2 to 583 residues) expressed in baculovirus infected Sf9 cells using biotinylated substrate after 1 hr by UV/Vis spectrophotometric analysis
# Histone deacetylase 1 = Histone deacetylase 1 (Homo sapiens, UniProt Q13547); test: Inhibition of HDAC1 (unknown origin) using acetylated peptide substrate preincubated for 15 mins followed by substrate addition measured after 60 mins by fluorescence analysis
# [3] = molecular target: T1, Protein deacetylase HDAC6 (Homo sapiens, UniProt Q9UBN7); test: Inhibition of HDAC6 (unknown origin) using acetylated peptide substrate preincubated for 15 mins followed by substrate addition measured after 60 mins by fluorescence analysis
# T1 sequence (Q9UBN7 whole entry): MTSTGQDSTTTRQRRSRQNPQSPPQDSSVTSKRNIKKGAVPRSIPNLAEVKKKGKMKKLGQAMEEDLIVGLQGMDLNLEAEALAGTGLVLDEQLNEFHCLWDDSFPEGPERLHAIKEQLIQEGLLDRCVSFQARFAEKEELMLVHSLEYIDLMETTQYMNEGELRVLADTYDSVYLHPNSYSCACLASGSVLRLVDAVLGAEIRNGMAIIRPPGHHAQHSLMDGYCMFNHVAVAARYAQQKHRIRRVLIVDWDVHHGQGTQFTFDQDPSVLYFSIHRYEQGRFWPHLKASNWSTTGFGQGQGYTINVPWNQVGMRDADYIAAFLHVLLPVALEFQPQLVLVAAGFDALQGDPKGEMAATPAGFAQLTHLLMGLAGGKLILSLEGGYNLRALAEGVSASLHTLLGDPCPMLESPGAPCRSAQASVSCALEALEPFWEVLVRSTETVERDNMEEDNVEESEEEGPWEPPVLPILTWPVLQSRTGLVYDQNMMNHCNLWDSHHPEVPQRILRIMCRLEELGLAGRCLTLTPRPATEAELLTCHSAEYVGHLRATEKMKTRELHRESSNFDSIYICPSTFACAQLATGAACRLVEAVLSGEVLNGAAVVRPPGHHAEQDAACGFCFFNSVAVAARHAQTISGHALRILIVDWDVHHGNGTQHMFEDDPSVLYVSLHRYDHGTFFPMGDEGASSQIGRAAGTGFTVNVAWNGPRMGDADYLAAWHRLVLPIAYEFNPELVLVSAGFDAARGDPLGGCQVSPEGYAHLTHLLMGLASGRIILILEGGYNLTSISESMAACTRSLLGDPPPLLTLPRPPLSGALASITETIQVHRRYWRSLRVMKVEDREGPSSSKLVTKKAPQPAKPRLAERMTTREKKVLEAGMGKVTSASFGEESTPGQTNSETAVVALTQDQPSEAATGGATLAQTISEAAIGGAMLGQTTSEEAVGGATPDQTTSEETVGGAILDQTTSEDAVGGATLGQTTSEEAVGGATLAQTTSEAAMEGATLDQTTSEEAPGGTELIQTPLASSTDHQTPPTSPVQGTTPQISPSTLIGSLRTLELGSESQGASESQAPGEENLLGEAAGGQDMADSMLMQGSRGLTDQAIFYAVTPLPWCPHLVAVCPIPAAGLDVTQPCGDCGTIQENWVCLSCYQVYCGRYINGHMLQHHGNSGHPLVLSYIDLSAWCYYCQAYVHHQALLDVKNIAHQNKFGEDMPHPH
# T47D = test: Antiproliferative activity against human T47D cells after 72 hrs by MTT assay; format: functional, cell-based
# MCF7 = test: Antiproliferative activity against human MCF7 cells after 72 hrs by MTT assay; format: functional, cell-based; conditions: MCF7, 72 h
# MDA-MB-231 [4] = test: Antiproliferative activity against human MDA-MB-231 cells after 72 hrs by MTT assay; format: functional, cell-based; conditions: MDA-MB-231, 72 h
# HCC827 = test: Antiproliferative activity against human HCC827 cells after 72 hrs by MTT assay; format: functional, cell-based; conditions: HCC827, 72 h
# HeLa = test: Antiproliferative activity against human HeLa cells after 72 hrs by MTT assay; format: functional, cell-based
# K562 = test: Antiproliferative activity against human K562 cells after 72 hrs by MTT assay; format: functional, cell-based; conditions: K562, 72 h
# U-937 = test: Antiproliferative activity against human U937 cells after 72 hrs by MTT assay; format: functional, cell-based; conditions: U-937, 72 h
# MDA-MB-231 [5] = test: Antiproliferative activity against human MDA-MB-231 cells after 5 days by MTT assay; format: functional, cell-based; conditions: MDA-MB-231, 120 h
# MCF-10A = test: Antiproliferative activity against human MCF10A cells after 72 hrs by MTT assay; format: cell-based
# [6] = Antiproliferative activity against human MCF10A cells at less than 50 uM after 72 hrs by MTT assay relative to control; format: cell-based, MCF-10A
# Homo sapiens = species: Homo sapiens; test: Selectivity ratio of IC50 for HDAC1 (unknown origin) to IC50 for HDAC6 (unknown origin)
# Chain of Poly [ADP-ribose] polymerase 1 (P09874 whole entry, the tested form may be a part): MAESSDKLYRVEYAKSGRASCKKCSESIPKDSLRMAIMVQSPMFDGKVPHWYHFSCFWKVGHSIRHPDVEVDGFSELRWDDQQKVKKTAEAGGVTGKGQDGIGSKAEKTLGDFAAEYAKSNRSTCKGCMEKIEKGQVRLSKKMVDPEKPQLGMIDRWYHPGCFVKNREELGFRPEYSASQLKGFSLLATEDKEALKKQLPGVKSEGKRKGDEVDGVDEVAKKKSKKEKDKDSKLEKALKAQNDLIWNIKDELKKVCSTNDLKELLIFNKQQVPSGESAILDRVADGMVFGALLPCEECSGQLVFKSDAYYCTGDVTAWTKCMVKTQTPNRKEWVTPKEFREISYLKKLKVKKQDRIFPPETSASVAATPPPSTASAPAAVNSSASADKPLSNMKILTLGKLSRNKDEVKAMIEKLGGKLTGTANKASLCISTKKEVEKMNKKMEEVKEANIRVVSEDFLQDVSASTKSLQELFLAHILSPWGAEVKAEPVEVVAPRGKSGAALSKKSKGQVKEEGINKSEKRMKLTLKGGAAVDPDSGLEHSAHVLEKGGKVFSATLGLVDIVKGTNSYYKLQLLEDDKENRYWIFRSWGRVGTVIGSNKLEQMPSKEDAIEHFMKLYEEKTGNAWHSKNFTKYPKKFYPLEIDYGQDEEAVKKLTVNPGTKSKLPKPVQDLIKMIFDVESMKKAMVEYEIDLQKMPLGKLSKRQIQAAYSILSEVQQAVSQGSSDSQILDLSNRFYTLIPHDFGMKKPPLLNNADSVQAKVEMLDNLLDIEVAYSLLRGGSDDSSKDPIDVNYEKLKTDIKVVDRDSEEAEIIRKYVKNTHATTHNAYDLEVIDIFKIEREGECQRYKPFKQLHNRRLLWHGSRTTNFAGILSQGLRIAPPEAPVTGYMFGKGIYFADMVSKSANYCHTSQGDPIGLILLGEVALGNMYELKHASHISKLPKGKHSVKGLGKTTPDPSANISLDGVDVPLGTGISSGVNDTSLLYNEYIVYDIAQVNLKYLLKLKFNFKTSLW
# Chain of Histone deacetylase 1 (Q13547 whole entry): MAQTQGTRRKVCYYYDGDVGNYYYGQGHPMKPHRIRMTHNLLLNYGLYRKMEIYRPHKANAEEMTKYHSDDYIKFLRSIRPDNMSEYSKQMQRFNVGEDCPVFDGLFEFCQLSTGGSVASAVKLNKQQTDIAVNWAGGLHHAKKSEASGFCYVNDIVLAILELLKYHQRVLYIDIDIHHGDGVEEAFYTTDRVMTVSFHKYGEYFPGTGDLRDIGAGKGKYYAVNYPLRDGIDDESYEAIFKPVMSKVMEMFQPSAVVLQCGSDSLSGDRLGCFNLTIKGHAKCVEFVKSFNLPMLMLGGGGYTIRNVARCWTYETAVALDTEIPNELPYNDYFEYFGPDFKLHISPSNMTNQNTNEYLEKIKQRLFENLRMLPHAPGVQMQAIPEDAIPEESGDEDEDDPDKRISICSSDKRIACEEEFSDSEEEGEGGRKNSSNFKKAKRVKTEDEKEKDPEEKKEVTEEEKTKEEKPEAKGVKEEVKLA
# Chain of Poly [ADP-ribose] polymerase 2 (Q9UGN5 whole entry, the tested form may be a part): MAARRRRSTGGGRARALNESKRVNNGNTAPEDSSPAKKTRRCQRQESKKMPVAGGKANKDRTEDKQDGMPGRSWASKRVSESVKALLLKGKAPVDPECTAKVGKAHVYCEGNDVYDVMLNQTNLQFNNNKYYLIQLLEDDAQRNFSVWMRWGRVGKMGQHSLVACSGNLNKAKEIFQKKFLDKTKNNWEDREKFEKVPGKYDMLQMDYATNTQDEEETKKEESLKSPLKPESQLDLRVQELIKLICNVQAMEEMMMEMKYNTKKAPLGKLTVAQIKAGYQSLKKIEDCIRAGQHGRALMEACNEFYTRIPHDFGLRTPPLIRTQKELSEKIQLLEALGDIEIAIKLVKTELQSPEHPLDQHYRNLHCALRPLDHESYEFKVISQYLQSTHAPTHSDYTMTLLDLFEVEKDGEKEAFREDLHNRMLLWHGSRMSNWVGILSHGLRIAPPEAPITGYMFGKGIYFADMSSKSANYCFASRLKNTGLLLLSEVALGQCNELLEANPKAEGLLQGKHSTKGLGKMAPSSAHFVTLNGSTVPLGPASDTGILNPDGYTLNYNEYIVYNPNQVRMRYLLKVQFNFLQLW
smiles,measurement,setting,value
O=C(NO)c1ccc(CN2CCN(C(=O)c3cc(Cc4n[nH]c(=O)c5ccccc45)ccc3F)CC2)cc1,IC50,[1],0.00616 µM
same,IC50,[2],0.0315 µM
same,IC50,Histone deacetylase 1,0.503 µM
same,IC50,[3],0.0167 µM
same,IC50,T47D,> 50 µM
same,IC50,MCF7,24.1 µM
same,IC50,MDA-MB-231 [4],33.2 µM
same,IC50,HCC827,24.1 µM
same,IC50,HeLa,> 50 µM
same,IC50,K562,43.3 µM
same,IC50,U-937,20.5 µM
same,IC50,MDA-MB-231 [5],18.3 µM
same,IC50,MCF-10A,> 50 µM
same,inhibition at 72 h,[6],20 to 30%
same,Ratio IC50,Homo sapiens,30
